# Laboratory results published in patent publication US10624968B2, “Compounds for treating cancer” (Bicycle Therapeutics Limited, priority 2017, dated 2020).
# Read-outs that look alike come from different tables or passages of the source.
# What was measured:
# EBC-1 [1] = assay: cells; settings: Homo sapiens, EBC-1, 72 h
# Source text: (§1) Details of the initial cell plating procedure are described in Table 3.
# (§2) Data Details for Tables 5 and 6. Inhibition %=(Max−Sample value)/(Max−Min)*100.
# (§3) The IC50 curves were generated by 4 Parameter Logistic Model—Sigmoidal Dose-Response Model as follows: Y=Bottom+(Top−Bottom)/(1+10^((log EC50-X)*HillSlope)).
# HCC1806 [2] = assay: cells; settings: Homo sapiens, HCC1806, 72 h
# Source text: as §1, §2, §3
# HCT15 [3] = assay: cells; settings: Homo sapiens, HCT-15, 72 h
# Source text: as §1, §2, §3
# HT1080 [4] = assay: cells; settings: Homo sapiens, HT-1080, 72 h
# Source text: as §1, §2, §3
# HT29 [5] = assay: cells; settings: Homo sapiens, HT-29, 72 h
# Source text: as §1, §2, §3
# MDA-MB-231 [6] = assay: cells; settings: Homo sapiens, MDA-MB-231, 72 h
# Source text: as §1, §2, §3
# MOLP-8 [7] = assay: cells; settings: Homo sapiens, MOLP-8, 72 h
# Source text: as §1, §2, §3
# NCI-H1975 [8] = assay: cells; settings: Homo sapiens, NCI-H1975, 72 h
# Source text: as §1, §2, §3
# NCI-H292 [9] = assay: cells; settings: Homo sapiens, NCI-H292, 72 h
# Source text: as §1, §2, §3
# PC-3 [10] = assay: cells; settings: Homo sapiens, PC-3, 72 h
# Source text: as §1, §2, §3
# SNU-16 [11] = assay: cells; settings: Homo sapiens, SNU-16, 72 h
# Source text: as §1, §2, §3
# 11 tumor cell lines = assay: 11 cancer cell line panel cytotoxicity, statements on the whole panel
# Source text: as §1, §2, §3
# HT1080 [12] = settings: historical, read-out: IC50* (Historical IC50 observed for paclitaxel); cited from earlier work
# PC-3 [13] = settings: historical, read-out: IC50* (Historical IC50 observed for paclitaxel); cited from earlier work
# MDA-MB-231 [14] = settings: historical, read-out: IC50* (Historical IC50 observed for paclitaxel); cited from earlier work
# NCI-H292 [15] = settings: historical, read-out: IC50* (Historical IC50 observed for paclitaxel); cited from earlier work
# NCI-H1975 [16] = settings: historical, read-out: IC50* (Historical IC50 observed for paclitaxel); cited from earlier work
# HCC1806 [17] = settings: historical, read-out: IC50* (Historical IC50 observed for paclitaxel); cited from earlier work
# EBC-1 [18] = settings: historical, read-out: IC50* (Historical IC50 observed for paclitaxel); cited from earlier work
# SNU-16 [19] = settings: historical, read-out: IC50* (Historical IC50 observed for paclitaxel); cited from earlier work
# HCT15 [20] = settings: historical, read-out: IC50* (Historical IC50 observed for paclitaxel); cited from earlier work
# HT29 [21] = settings: historical, read-out: IC50* (Historical IC50 observed for paclitaxel); cited from earlier work
# MOLP-8 [22] = settings: historical, read-out: IC50* (Historical IC50 observed for paclitaxel); cited from earlier work
compound,measurement,setting,value
CC(=O)O[C@H]1C(=O)[C@@]2(C)[C@H]([C@H](OC(=O)c3ccccc3)[C@]3(O)C[C@H](OC(=O)[C@H](O)[C@@H](NC(=O)c4ccccc4)c4ccccc4)C(C)=C1C3(C)C)[C@]1(OC(C)=O)CO[C@@H]1C[C@@H]2O [Paclitaxel],IC50,EBC-1 [1],4.1 nM
same,IC50,HCC1806 [2],2.7 nM
same,IC50,HCT15 [3],112 nM
same,IC50,HT1080 [4],6.6 nM
same,IC50,HT29 [5],4.1 nM
same,IC50,MDA-MB-231 [6],4.8 nM
same,IC50,MOLP-8 [7],6.9 nM
same,IC50,NCI-H1975 [8],7.2 nM
same,IC50,NCI-H292 [9],2.9 nM
same,IC50,PC-3 [10],9.2 nM
same,IC50,SNU-16 [11],2.5 nM
same,cytotoxic activity over the cell line panel (in words),11 tumor cell lines,worked well on all the tested cell lines
same,IC50,HT1080 [12],1 nM
same,IC50,PC-3 [13],12 nM
same,IC50,MDA-MB-231 [14],9 nM
same,IC50,NCI-H292 [15],2 nM
same,IC50,NCI-H1975 [16],5 nM
same,IC50,HCC1806 [17],2 nM
same,IC50,EBC-1 [18],4 nM
same,IC50,SNU-16 [19],2 nM
same,IC50,HCT15 [20],128 nM
same,IC50,HT29 [21],2 nM
same,IC50,MOLP-8 [22],4 nM
